Test results published in US11606956B2, “4-chloroindole-3-acetic acid for controlling unwanted plants” (PREMIER TECH TECHNOLOGIES LTÉE, priority 2014, dated 2023).

Experiments:
[1] = tested on: barley; details: cited from earlier work; for quantity sufficient to affect the growth by 50%: barley (monocotyledonous), aqueous solution containing 10% ethanol
[2] = tested on: dandelion; test: Dandelion control, targeted applications on turfed terrain (damage rating 0-5, mortality %); format: in vivo, Taraxacum officinale; details: for control efficacy (damage rating and mortality percentage): 0.014 to 0.036 g/plant
Method: (§1) Control: eradication of weeds assessed, after a certain length of time, based on a visible damage rating of the foliage, varying from 0 to 5, and/or the mortality percentage observed on the treated plants.
The experiment was conducted using a randomized complete block design. Four repetitions were done for each treatment.
Dependent variable: mean damage rating (from 0 to 5) with the variation coefficient assessed after 42 days.
Dependent variable: Mean mortality percentage with the variation coefficient assessed after 42 days.
Treatment: solution of 4Cl-IAA applied at a dose of 0.03 g/plant containing 10% urea as co-ingredient
Dependent variable: mean damage rating (from 0 to 5)
The experiment was conducted using a randomized complete block design. Four repetitions were done for each treatment, except for 4Cl-IAA methyl ester, where three repetitions were done.
Treatment: the applied quantities varied from 0.014 to 0.036 g/plant, except for IAA, where the quantity was higher (0.2 g/plant) in light of the information found in the literature on the effect of the latter.
Dependent variable: mean damage rating (from 0 to 5) and mean mortality percentage assessed between 28 and 35 days after application

[3] = tested on: turf; test: Selectivity: turf impact rating (0-3), targeted applications; format: in vivo; details: doses below 0.1 g/plant; without co-ingredient; after 7 days; rating 0 to 3
Method: Selectivity of the effect: absence of a pronounced effect of the herbicide on the desirable plants assessed based on an impact rating on the latter, varying from 0 to 3 in the case of turf. [table] The experiment was conducted using a randomized complete block design. Five repetitions were done for each treatment. Treatment: 4Cl-IAA without co-ingredient Dependent variable: Impact rating (from 0 to 3) on the turf assessed after 7 days.

[4] = tested on: plantain; test: Plantain control, second targeted application; format: in vivo, Plantago sp.; details: 0.015, 0.023 and 0.030 g/plant; without co-ingredient
Method: The experiment was conducted using randomized complete block design. Four repetitions were done for each treatment. Treatment: 4Cl-IAA without co-ingredient at three doses, i.e., 0.015, 0.023 and 0.030 g/plant Dependent variable: mean mortality percentage

[5] = tested on: dicotyledonous weed species; test: Weed species controlled with targeted applications (Example 10); format: in vivo; details: 0.022 to 0.036 g/plant; after 21 to 40 days depending on the species; weed species of Table 4
Method: The experiments were conducted according to completely randomized design and randomized complete block design with targeted applications for weed control on various terrain covered in turf.
Treatment: 4Cl-IAA without co-ingredient with doses varying from 0.022 to 0.036 g/plant
Variables: Observation of a damage rating above 4 and a mortality percentage above 80%, assessed after a period of 21 to 40 days, depending on the species.

[6] = tested on: dandelion; test: Dandelion control, spreading applications (damage rating 0-5); format: in vivo, Taraxacum officinale; details: 100 mL/m^2, after 50 days
Method: as §1
(§2) The experiment was conducted using a randomized complete block design. Three repetitions were done for each treatment with surface areas of 0.5 m^2.
(§3) Treatment: 4Cl-IAA without co-ingredient with an application rate of 100 mL/m^2
(§4) Dependent variable: mean damage rating (from 0 to 5) of the dandelion and mean impact rating (from 0 to 3) on the turf assessed after 50 days

[7] = tested on: turf; test: Selectivity: turf impact rating (0-3), spreading applications; format: in vivo; details: for Turf impact rating: 100 mL/m^2, after 50 days
Method: Selectivity of the effect: absence of a pronounced effect of the herbicide on the desirable plants assessed based on an impact rating on the latter, varying from 0 to 3 in the case of turf.
as §2, §3, §4
The experiment was conducted using a completely randomized design with surface areas of 2 m^2 per treatment.
Dependent variable: impact rating (from 0 to 3) on the turf assessed after 4 and 90 days

[8] = Peroxide deterioration tests; format: physicochemical
[9] = Storage stability of finished product; format: physicochemical; details: finished product incorporating the molecule; room temperature
[10] = tested on: peas and mustard; details: aqueous solution containing 10% ethanol; cited from earlier work
[11] = 28 to 35 days after application
[12] = 0.2 g/plant, 28 to 35 days after application

Question: Which “quantity sufficient to affect the growth by 50%” value [1] does the source give for `O=C(O)COc1ccc(Cl)cc1Cl` [2,4-D, 2,4-dichlorophenoxyacetic acid, reference compound] here?
Answer: Its value is 0.5 g/m^2.

Question: For `COC(=O)Cc1c[nH]c2cccc(Cl)c12` [methyl ester of 4Cl-IAA], which “control efficacy (damage rating and mortality percentage)” value [2, 11] is on record?
Answer: Its value is “control efficacies close to those observed with a 2,4-D-based herbicide”.

Question: Which mean damage rating [2, 12] does the source give for `O=C(O)Cc1c[nH]c2ccccc12` [IAA, indole-3-acetic acid] here?
Answer: Its mean damage rating is “interesting damage rating”.

Question: What about the mean mortality percentage [2, 12] of the same molecule?
Answer: The mean mortality percentage was “low mortality percentage”.

Question: For `O=C(O)Cc1c[nH]c2cccc(Cl)c12` [4Cl-IAA, 4-chloroindole-3-acetic acid], which “control efficacy (damage rating and mortality percentage)” value [2, 11] is on record?
Answer: The value was “control efficacies close to those observed with a 2,4-D-based herbicide”.

Question: What about the damage rating ([2]; after 3 days, solution containing 0.45% of 4Cl-IAA, rating 0 to 5) of the same molecule?
Answer: Its damage rating is “only a small effect”.

Question: And the “damage rating for dandelion control” value ([2]; after 35 days, solution containing 0.45% of 4Cl-IAA, rating 0 to 5)?
Answer: The value was 5.

Question: And the “damage rating on dandelions” value ([2]; dose 0.0075 g per plant, without vs with chelating agent (HEDTA or EDDS), rating 0 to 5)?
Answer: Its value is 3.1.

Question: What about the “decrease of the mortality percentage” value ([2]; doses below 0.01 g/plant, without co-ingredient, after 42 days) of the same molecule?
Answer: Its value is “about 50%”.

Question: What about the turf impact [3] of the same molecule?
Answer: Its turf impact is “zero to acceptable”.

Question: What about the “control efficacy (mean mortality percentage), effect of a second application” value [4] of the same molecule?
Answer: Its value is “pronounced improvement in the control efficacy”.

Question: And the damage rating [5]?
Answer: Its damage rating is “above 4”.

Question: And the mortality percentage [5]?
Answer: The mortality percentage was “above 80%”.

Question: And the Dandelion damage rating ([6]; dose 0.3 g/m^2)?
Answer: The Dandelion damage rating was 3.0.

Question: And the Dandelion damage rating ([6]; dose 0.6 g/m^2)?
Answer: Its Dandelion damage rating is 4.1.

Question: And the Dandelion damage rating ([6]; dose 1.0 g/m^2)?
Answer: The Dandelion damage rating was 3.8.

Question: And the Dandelion damage rating ([6]; dose 1.2 g/m^2)?
Answer: Its Dandelion damage rating is 3.9.

Question: What about the “impact rating on the turf” value ([7]; dose 0.25 g/m^2, after 4 days) of the same molecule?
Answer: Its value is 0.

Question: What about the “impact rating on the turf” value ([7]; dose 0.25 g/m^2, after 90 days) of the same molecule?
Answer: The value was 0.

Question: What about the Turf impact rating ([7]; dose 0.3 g/m^2) of the same molecule?
Answer: Its Turf impact rating is 0.7.

Question: And the Turf impact rating ([7]; dose 0.6 g/m^2)?
Answer: The Turf impact rating was 1.7.

Question: And the “impact rating on the turf” value ([7]; dose 0.6 g/m^2, after 4 days)?
Answer: The value was 1.

Question: And the “impact rating on the turf” value ([7]; dose 0.6 g/m^2, after 90 days)?
Answer: The value was 0.

Question: And the “impact rating on the turf” value ([7]; dose 0.9 g/m^2, after 4 days)?
Answer: Its value is 1.

Question: What about the “impact rating on the turf” value ([7]; dose 0.9 g/m^2, after 90 days) of the same molecule?
Answer: The value was 0.

Question: And the Turf impact rating ([7]; dose 1.0 g/m^2)?
Answer: The Turf impact rating was 1.7.

Question: What about the “impact rating on the turf” value ([7]; dose 1.0 g/m^2, after 4 days) of the same molecule?
Answer: Its value is 2.

Question: And the “impact rating on the turf” value ([7]; dose 1.0 g/m^2, after 90 days)?
Answer: The value was 0.

Question: And the Turf impact rating ([7]; dose 1.2 g/m^2)?
Answer: Its Turf impact rating is 2.0.

Question: And the “impact rating on the turf” value ([7]; dose 1.2 g/m^2, after 4 days)?
Answer: Its value is 3.

Question: What about the “impact rating on the turf” value ([7]; dose 1.2 g/m^2, after 90 days) of the same molecule?
Answer: Its value is 0.

Question: What about the “stability in peroxide deterioration tests” value [8] of the same molecule?
Answer: The value was “a certain stability”.

Question: What about the stability in storage [9] of the same molecule?
Answer: The stability in storage was “stability over two years”.

Question: What about the “quantity sufficient to affect the growth by 50%” value [1] of the same molecule?
Answer: Its value is 0.17 g/m^2.

Question: What about the “sensitivity of the monocotyledonous plant compared with 2,4-D” value ([1]; barley) of the same molecule?
Answer: Its value is “three times higher”.

Question: What about the “impact on the growth of dicotyledonous plants compared to 2,4-D” value [10] of the same molecule?
Answer: Its value is “about 4 times lower”.
